Experimental data as given in US11629146B2, “Substituted [1,2,4]triazolo[4,3-a]pyrazines as modulators of sodium channel activity” (Praxis Precision Medicines, Inc., priority 2016, dated 2023).
Read-outs that look alike come from different tables or passages of the source.

Biological target: human NaV1.6 (hNaV1.6) (Homo sapiens (Human), UniProt Q9UQD0)
Experiment: INaL inhibition at hNaV1.6, PatchXpress electrophysiology
Format: cell-based
Method: Functional characterization of exemplary compounds to modulate INaL expressed by the Nay 1.6 voltage-gated sodium channel was accomplished using the PatchXpress™ high throughput electrophysiology platform (Molecular Devices, Sunnyvale, Calif.). HEK-293 cells expressing recombinant, human NaV1.6 (hNaV1.6) were grown in DMEM/high-glucose Dulbecco's modified, 10% FBS, 2 mM sodium pyruvate, 10 mM HEPES and 400 μg/mL G418. Cells were grown to 50%-80% confluency prior to harvesting. […] The onboard liquid handling facility of the PatchXpress was used for dispensing cells and applying test compounds. Nay late currents were evoked by the application of 300 nM ATX-II. […] INaL amplitude and stability were determined by analyzing the mean current amplitude over the final 20 ms of the test pulse. […] Percent steady-state inhibition of INaL was calculated as: [(INaL_compound)/(INaL_control)]*100, where INaL_compound and INaL_control represent INaL recorded in the presence or absence of compound, respectively.

[1] = 1 μM, HEK-293 cells expressing hNaV1.6, late current evoked by 300 nM ATX-II
[2] = HEK293, 1 μM, HEK-293 cells expressing hNaV1.6, late current evoked by 300 nM ATX-II, read-out: INaL v1.6 (1 μM, % Inhibition)
[3] = HEK293, read-out: INaL v1.6 (1 μM, % Inhibition)

human NaV1.6 (hNaV1.6), sequence (Q9UQD0 whole entry): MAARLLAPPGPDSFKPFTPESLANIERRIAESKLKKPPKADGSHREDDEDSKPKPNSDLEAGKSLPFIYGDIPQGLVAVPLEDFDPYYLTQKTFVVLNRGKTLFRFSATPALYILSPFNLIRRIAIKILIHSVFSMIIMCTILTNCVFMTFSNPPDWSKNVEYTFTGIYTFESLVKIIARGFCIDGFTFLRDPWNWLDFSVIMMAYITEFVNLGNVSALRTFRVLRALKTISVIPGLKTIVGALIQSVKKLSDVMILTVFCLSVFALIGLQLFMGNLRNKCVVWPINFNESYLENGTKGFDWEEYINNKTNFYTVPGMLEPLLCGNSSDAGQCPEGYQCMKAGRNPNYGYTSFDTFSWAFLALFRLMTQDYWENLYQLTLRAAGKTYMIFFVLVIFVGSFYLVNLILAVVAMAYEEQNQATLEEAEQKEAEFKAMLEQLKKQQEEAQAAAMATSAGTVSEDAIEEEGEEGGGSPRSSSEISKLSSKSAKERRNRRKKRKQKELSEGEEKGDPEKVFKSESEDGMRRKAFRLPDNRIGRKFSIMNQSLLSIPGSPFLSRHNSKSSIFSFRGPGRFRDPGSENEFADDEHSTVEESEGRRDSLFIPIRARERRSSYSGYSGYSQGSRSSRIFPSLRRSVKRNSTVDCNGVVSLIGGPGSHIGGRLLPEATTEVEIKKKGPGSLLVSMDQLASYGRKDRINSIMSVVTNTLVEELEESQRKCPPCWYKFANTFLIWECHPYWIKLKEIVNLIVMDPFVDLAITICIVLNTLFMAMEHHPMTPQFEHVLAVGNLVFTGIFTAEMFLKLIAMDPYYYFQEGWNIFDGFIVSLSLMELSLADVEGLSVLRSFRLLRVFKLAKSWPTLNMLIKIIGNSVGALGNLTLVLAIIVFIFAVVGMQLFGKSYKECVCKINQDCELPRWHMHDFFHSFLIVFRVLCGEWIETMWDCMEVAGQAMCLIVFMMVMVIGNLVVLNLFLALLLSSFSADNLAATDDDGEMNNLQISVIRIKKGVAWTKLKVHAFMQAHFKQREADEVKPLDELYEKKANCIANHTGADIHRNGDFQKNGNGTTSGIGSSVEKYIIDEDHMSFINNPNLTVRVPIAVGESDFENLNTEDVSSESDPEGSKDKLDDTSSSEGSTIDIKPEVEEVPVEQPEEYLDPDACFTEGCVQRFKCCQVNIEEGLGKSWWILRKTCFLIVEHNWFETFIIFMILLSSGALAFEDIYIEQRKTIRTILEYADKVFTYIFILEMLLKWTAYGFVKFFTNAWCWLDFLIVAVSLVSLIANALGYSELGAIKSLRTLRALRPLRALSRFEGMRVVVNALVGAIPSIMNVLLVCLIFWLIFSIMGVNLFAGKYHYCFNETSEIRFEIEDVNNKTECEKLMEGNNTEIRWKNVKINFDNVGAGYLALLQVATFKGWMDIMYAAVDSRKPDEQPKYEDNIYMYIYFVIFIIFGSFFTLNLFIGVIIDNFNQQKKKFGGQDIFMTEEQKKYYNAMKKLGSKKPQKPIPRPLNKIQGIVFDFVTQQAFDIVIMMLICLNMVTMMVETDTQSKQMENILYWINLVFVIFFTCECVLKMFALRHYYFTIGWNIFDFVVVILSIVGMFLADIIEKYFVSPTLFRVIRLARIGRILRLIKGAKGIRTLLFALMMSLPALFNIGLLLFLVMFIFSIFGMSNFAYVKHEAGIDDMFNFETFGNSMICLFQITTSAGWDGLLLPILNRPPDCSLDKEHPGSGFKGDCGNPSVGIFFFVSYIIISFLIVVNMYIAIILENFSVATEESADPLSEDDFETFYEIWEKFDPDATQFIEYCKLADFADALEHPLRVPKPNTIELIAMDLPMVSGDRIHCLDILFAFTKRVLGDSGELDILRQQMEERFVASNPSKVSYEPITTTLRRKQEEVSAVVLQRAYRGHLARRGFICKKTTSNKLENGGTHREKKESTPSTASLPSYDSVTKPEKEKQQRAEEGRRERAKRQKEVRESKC

SMILES: C[C@@H](Oc1ncc(-c2cn3c(C(F)F)nnc3cn2)cc1F)C(F)(F)F [Compound 134]
- INaL v1.6 (1 μM, % Inhibition) [1]: C (inhibition of greater than 70%)

SMILES: Fc1cc(-c2cn3c(C(F)(F)F)nnc3cn2)ccc1OC1CC(F)(F)C1 [Compound 194]
- inhibition at 1 µM [2]: 30 to 70%

SMILES: N#CC1(c2ccc(-c3ccc4nnc(C(F)(F)F)n4n3)cc2)CCC1 [Compound 60]
- inhibition at 1 µM [3]: 30 to 70%

SMILES: Nc1cc(-c2ccc(OC(F)(F)F)cc2)nn2c(C(F)(F)F)nnc12 [Compound 176, 6-[4-(trifluoromethoxy)phenyl]-3-(trifluoromethyl)-[1,2,4]triazolo[4,3-b]pyridazin-8-amine]
- inhibition at 1 µM [2]: < 30%

SMILES: COc1cc(C2(C#N)CC2)ccc1-c1cn2c(C(F)(F)F)nnc2cn1 [Compound 64]
- inhibition at 1 µM [2]: < 30%

SMILES: N#CC1(c2ccc(-c3ccc4nnc(C(F)(F)F)n4n3)cc2F)CC1 [Compound 104]
- inhibition at 1 µM [3]: < 30%

SMILES: OCc1cc(-c2ccc3nnc(C(F)(F)F)n3n2)ccc1OC(F)(F)F [Compound 115, [2-(trifluoromethoxy)-5-[3-(trifluoromethyl)-[1,2,4]triazolo[4,3-b]pyridazin-6-yl]phenyl]methanol]
- inhibition at 1 µM [2]: 30 to 70%

SMILES: FC(F)(F)c1nnc2cnc(-c3ccc([C@@H]4CC4(F)F)cc3)cn12 [Compound 152, 6-[4-[(1S)-2,2-difluorocyclopropyl]phenyl]-3-(trifluoromethyl)-[1,2,4]triazolo[4,3-a]pyrazine]
- inhibition at 1 µM [2]: > 70%

SMILES: FC(F)c1nnc2cnc(-c3ccc(OCC(F)(F)F)nc3)cn12 [Compound 50]
- inhibition at 1 µM [2]: 30 to 70%

SMILES: FC(F)(F)Oc1ccc(-c2cn3c([C@H]4CCOC4)nnc3cn2)cc1 [Compound 160, 3-[(3R)-tetrahydrofuran-3-yl]-6-[4-(trifluoromethoxy)phenyl]-[1,2,4]triazolo[4,3-a]pyrazine]
- inhibition at 1 µM [2]: < 30%

SMILES: FC(F)(F)Oc1ccc(-c2cnc3nnc(C(F)(F)F)n3c2)cc1 [Compound 54]
- inhibition at 1 µM [2]: < 30%

SMILES: FC(F)c1nnc2cnc(-c3ccc(OC4CC(F)(F)C4)cc3)cn12 [Compound 178]
- inhibition at 1 µM [2]: 30 to 70%

SMILES: Cc1cc(-c2ccc3nnc(C(F)(F)F)n3n2)ccc1C(F)(F)F [Compound 98]
- inhibition at 1 µM [2]: > 70%

SMILES: OCc1ccc(-c2ccc3nnc(C(F)F)n3n2)cc1 [Compound 169, [4-[3-(difluoromethyl)-[1,2,4]triazolo[4,3-b]pyridazin-6-yl]phenyl]methanol]
- inhibition at 1 µM [2]: < 30%

SMILES: Fc1cc(-c2ccc3nnc(C4CC(F)(F)C4)n3n2)cnc1OCC(F)(F)F [Compound 83]
- inhibition at 1 µM [2]: 30 to 70%

SMILES: O=C(O)c1cc(-c2ccc(OC(F)(F)F)cc2)nn2c(C(F)(F)F)nnc12 [Compound 181, 6-[4-(trifluoromethoxy)phenyl]-3-(trifluoromethyl)-[1,2,4]triazolo[4,3-b]pyridazine-8-carboxylic acid]
- inhibition at 1 µM [2]: < 30%

SMILES: FC(F)(F)Oc1ccc(-c2cn3c(C[C@H]4CCCCO4)nnc3cn2)cc1 [Compound 129, 3-[[(2R)-tetrahydropyran-2-yl]methyl]-6-[4-(trifluoromethoxy)phenyl]-[1,2,4]triazolo[4,3-a]pyrazine]
- inhibition at 1 µM [2]: < 30%

SMILES: FC(F)(F)Oc1ccc(-c2cn3c(C[C@H]4CCCOC4)nnc3cn2)cc1 (single isomer, unassigned) [Compound 154]
- inhibition at 1 µM [2]: < 30%

SMILES: FC(F)(F)Oc1ccc(-c2cn3c(C(F)(F)F)nnc3cn2)cc1 [Compound 56]
- inhibition at 1 µM [2]: > 70%

SMILES: COCc1cc(OC(F)(F)F)ccc1-c1ccc2nnc(C(F)F)n2n1 [Compound 137]
- inhibition at 1 µM [2]: 30 to 70%

SMILES: COc1cc(OC(F)(F)F)ccc1-c1cn2c(C(F)(F)F)nnc2cn1 [Compound 70]
- inhibition at 1 µM [2]: 30 to 70%

SMILES: COCc1nc(-c2ccc(OC(F)(F)F)cc2)cn2c(C(F)(F)F)nnc12 [Compound 192]
- inhibition at 1 µM [2]: < 30%

SMILES: Fc1cc(-c2ccc3nnc(C(F)(F)F)n3n2)ccc1OC1CC(F)(F)C1 [Compound 100]
- inhibition at 1 µM [2]: 30 to 70%

SMILES: FC(F)(F)Oc1ccc(-c2ccc3nnc(C4CC4(F)F)n3n2)cc1 (single isomer, unassigned) [Compound 46]
- INaL v1.6 (1 μM, % Inhibition) [1]: C (inhibition of greater than 70%)

SMILES: FC(F)OCc1cc(OC(F)(F)F)ccc1-c1ccc2nnc(C(F)(F)F)n2n1 [Compound 101]
- inhibition at 1 µM [2]: 30 to 70%

SMILES: COCc1ccc(-c2ccc3nnc(C(F)F)n3n2)cc1 [Compound 171]
- inhibition at 1 µM [2]: < 30%

SMILES: FC(F)c1nnc2cnc(-c3ccc([C@H]4CC4(F)F)cc3)cn12 [Compound 166, 6-[4-[(1R)-2,2-difluorocyclopropyl]phenyl]-3-(difluoromethyl)-[1,2,4]triazolo[4,3-a]pyrazine]
- inhibition at 1 µM [2]: 30 to 70%

SMILES: FC(F)c1nnc2cnc(-c3ccc(OC(F)(F)F)cc3)cn12 [Compound 47]
- inhibition at 1 µM [2]: 30 to 70%

SMILES: COCc1cc(C(F)(F)F)ccc1-c1cn2c(C(F)F)nnc2cn1 [Compound 141]
- inhibition at 1 µM [2]: 30 to 70%

SMILES: COCc1cc(-c2ccc3nnc(C(F)(F)F)n3n2)ccc1C(F)(F)F [Compound 158]
- inhibition at 1 µM [2]: 30 to 70%

SMILES: FC(F)(F)Oc1ccc(-c2cc(Cl)c3nnc(C(F)(F)F)n3n2)cc1 [Compound 189]
- inhibition at 1 µM [2]: < 30%

SMILES: FC(F)(F)c1ccc(-c2cn3c(C(F)(F)F)nnc3cn2)cc1 [Compound 62]
- inhibition at 1 µM [2]: 30 to 70%

SMILES: Fc1cc(-c2ccc3nnc(C(F)F)n3n2)cnc1OCC(F)(F)F [Compound 85]
- inhibition at 1 µM [2]: < 30%

SMILES: Fc1cc(-c2ccc3nnc(C4(F)CC4)n3n2)cnc1OCC(F)(F)F [Compound 88]
- inhibition at 1 µM [2]: 30 to 70%

SMILES: FC(F)(F)Oc1ccc(-c2cn3c(C4CCOCC4)nnc3cn2)cc1 [Compound 145]
- inhibition at 1 µM [3]: < 30%

SMILES: COCc1ccc(-c2cn3c(C(F)(F)F)nnc3cn2)cc1 [Compound 180]
- inhibition at 1 µM [2]: < 30%

SMILES: FC(F)(F)Oc1ccc(-c2cn3c(C[C@@H]4CCCCO4)nnc3cn2)cc1 [Compound 130, 3-[[(2S)-tetrahydropyran-2-yl]methyl]-6-[4-(trifluoromethoxy)phenyl]-[1,2,4]triazolo[4,3-a]pyrazine]
- inhibition at 1 µM [2]: 30 to 70%

SMILES: Fc1cc(-c2ccc3nnc(C(F)(F)F)n3n2)cnc1C(F)(F)F [Compound 99]
- inhibition at 1 µM [2]: < 30%

SMILES: O=C(O)c1cc2nnc(C(F)(F)F)n2nc1-c1ccc(OC(F)(F)F)cc1 [Compound 184, 6-[4-(trifluoromethoxy)phenyl]-3-(trifluoromethyl)-[1,2,4]triazolo[4,3-b]pyridazine-7-carboxylic acid]
- inhibition at 1 µM [2]: < 30%

SMILES: Fc1cc2nnc(C(F)(F)F)n2nc1-c1ccc(OC(F)(F)F)cc1 [Compound 187]
- inhibition at 1 µM [2]: > 70%

SMILES: CC(C)OCc1ccc(-c2cn3c(C(F)(F)F)nnc3cn2)cc1 [Compound 195]
- inhibition at 1 µM [2]: < 30%

SMILES: O=C(Cc1nnc2cnc(-c3ccc(OC(F)(F)F)cc3)cn12)N1CCCC1 [Compound 114]
- inhibition at 1 µM [2]: 30 to 70%

SMILES: COC(C)(C)c1ccc(-c2cn3c(C(F)F)nnc3cn2)cc1 [Compound 51]
- inhibition at 1 µM [2]: < 30%

SMILES: FC(F)c1nnc2ccc(-c3ccc([C@@H]4CC4(F)F)cc3)nn12 [Compound 165, 6-[4-[(1S)-2,2-difluorocyclopropyl]phenyl]-3-(difluoromethyl)-[1,2,4]triazolo[4,3-b]pyridazine]
- inhibition at 1 µM [2]: > 70%

SMILES: FC(F)Oc1ccc(-c2cn3c(C(F)F)nnc3cn2)cc1 [Compound 138]
- inhibition at 1 µM [2]: < 30%

SMILES: COCc1cc(-c2ccc3nnc(C(F)F)n3n2)ccc1C(F)(F)F [Compound 159]
- inhibition at 1 µM [2]: 30 to 70%

SMILES: FCCc1nnc2cnc(-c3ccc(OC(F)(F)F)cc3)cn12 [Compound 119]
- inhibition at 1 µM [2]: < 30%

SMILES: COc1cc(OC(F)(F)F)ccc1-c1ccc2nnc(C(F)(F)OCC3CC3)n2n1 [Compound 34]
- inhibition at 1 µM [2]: > 70%

SMILES: FC(F)(F)COc1nnc2cnc(-c3ccc(OC(F)(F)F)cc3)cn12 [Compound 150]
- inhibition at 1 µM [2]: < 30%

SMILES: FC(F)(F)Oc1ccc(-c2nn3c(C(F)(F)F)nnc3cc2Cl)cc1 [Compound 162, 7-chloro-6-[4-(trifluoromethoxy)phenyl]-3-(trifluoromethyl)-[1,2,4]triazolo[4,3-b]pyridazine]
- inhibition at 1 µM [2]: > 70%

SMILES: FC(F)(F)c1nnc2cnc(-c3ccc([C@H]4CC4(F)F)cc3)cn12 [Compound 151, 6-[4-[(1R)-2,2-difluorocyclopropyl]phenyl]-3-(trifluoromethyl)-[1,2,4]triazolo[4,3-a]pyrazine]
- inhibition at 1 µM [2]: 30 to 70%

SMILES: CC(C)(O)c1ccc(-c2ccc3nnc(C(F)(F)F)n3n2)cc1 [Compound 102]
- inhibition at 1 µM [2]: < 30%

SMILES: COc1nnc2cnc(-c3ccc(OC(F)(F)F)cc3)cn12 [Compound 148]
- inhibition at 1 µM [2]: < 30%

SMILES: FC(F)(F)Oc1ccc(-c2cn3c(C[C@@H]4CCCOC4)nnc3cn2)cc1 (single isomer, unassigned) [Compound 155]
- inhibition at 1 µM [2]: < 30%

SMILES: FC(F)(F)c1nnc2ccc(-c3ccc([C@H]4CC4(F)F)cc3)nn12 [Compound 121, 6-[4-[(1R)-2,2-difluorocyclopropyl]phenyl]-3-(trifluoromethyl)-[1,2,4]triazolo[4,3-b]pyridazine]
- inhibition at 1 µM [3]: > 70%

SMILES: COC(F)(F)c1nnc2cnc(-c3ccc(OC(F)(F)F)cc3)cn12 [Compound 97]
- inhibition at 1 µM [2]: > 70%

SMILES: CC(=O)Nc1cc2nnc(C(F)(F)F)n2nc1-c1ccc(OC(F)(F)F)cc1 [Compound 191]
- inhibition at 1 µM [2]: < 30%

SMILES: FC(F)(F)COc1ccc(-c2cn3c(C(F)(F)F)nnc3cn2)cn1 [Compound 179]
- inhibition at 1 µM [2]: 30 to 70%

SMILES: CC(C)c1nnc2cnc(-c3ccc(OC(F)(F)F)cc3)cn12 [Compound 75]
- inhibition at 1 µM [2]: < 30%

SMILES: COCc1cc(-c2cn3c(C(F)(F)F)nnc3cn2)ccc1OC(F)(F)F [Compound 173]
- inhibition at 1 µM [2]: 30 to 70%
